# How the values were obtained:
# Hepatotoxicity [1] = tested on: Hepatotoxicity;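 for HepSE bilirubinemia: bilirubinemia hepatic side effect score drawn from the DILIps training data, a prediction system for drug-induced liver injury; call rule not given here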;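 for HepSE cholecystitis: Cholecystitis-related hepatic side effect score drawn from the DILIps (drug-induced liver injury prediction) training data set; call rule not given here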;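 for HepSE cholelithiasis: hepatic side effect score for cholelithiasis, drawn from the DILIps training data for predicting drug-induced liver injury; call rule not given here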;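 for HepSE elevated liver function tests: hepatic side effect score for raised liver function tests, as recorded in the DILIps training set used for predicting drug-induced liver injury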;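 for HepSE hepatomegaly: hepatic side effect score for hepatomegaly, taken from the training set of the DILIps drug-induced liver injury prediction system; call rule not given here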; for HepSE liver disease: call rule not given here;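 for HepSE liver function tests abnormal: hepatic side effect score taken from the DILIps (drug-induced liver injury prediction system) training data, here covering abnormal liver function test findings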
# Hepatotoxicity [2] = tested on: Hepatotoxicity; remark: listed apart in the source;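 for HepSE bilirubinemia: bilirubinemia hepatic side effect score drawn from the DILIps training data, a prediction system for drug-induced liver injury; call rule not given here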;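 for HepSE cholecystitis: Cholecystitis-related hepatic side effect score drawn from the DILIps (drug-induced liver injury prediction) training data set; call rule not given here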;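 for HepSE cholelithiasis: hepatic side effect score for cholelithiasis, drawn from the DILIps training data for predicting drug-induced liver injury; call rule not given here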;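 for HepSE hepatomegaly: hepatic side effect score for hepatomegaly, taken from the training set of the DILIps drug-induced liver injury prediction system; call rule not given here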; for HepSE liver disease: call rule not given here;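 for HepSE liver function tests abnormal: hepatic side effect score taken from the DILIps (drug-induced liver injury prediction system) training data, here covering abnormal liver function test findings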
# Hepatotoxicity [3] = tested on: Hepatotoxicity; remark: listed apart in the source;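 for HepSE bilirubinemia: bilirubinemia hepatic side effect score drawn from the DILIps training data, a prediction system for drug-induced liver injury; call rule not given here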;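 for HepSE cholecystitis: Cholecystitis-related hepatic side effect score drawn from the DILIps (drug-induced liver injury prediction) training data set; call rule not given here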;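 for HepSE cholelithiasis: hepatic side effect score for cholelithiasis, drawn from the DILIps training data for predicting drug-induced liver injury; call rule not given here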;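 for HepSE hepatomegaly: hepatic side effect score for hepatomegaly, taken from the training set of the DILIps drug-induced liver injury prediction system; call rule not given here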; for HepSE liver disease: call rule not given here;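 for HepSE liver function tests abnormal: hepatic side effect score taken from the DILIps (drug-induced liver injury prediction system) training data, here covering abnormal liver function test findings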
# Hepatotoxicity [4] = tested on: Hepatotoxicity; remark: listed apart in the source;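 for HepSE bilirubinemia: bilirubinemia hepatic side effect score drawn from the DILIps training data, a prediction system for drug-induced liver injury; call rule not given here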;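 for HepSE cholecystitis: Cholecystitis-related hepatic side effect score drawn from the DILIps (drug-induced liver injury prediction) training data set; call rule not given here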;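 for HepSE cholelithiasis: hepatic side effect score for cholelithiasis, drawn from the DILIps training data for predicting drug-induced liver injury; call rule not given here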;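 for HepSE hepatomegaly: hepatic side effect score for hepatomegaly, taken from the training set of the DILIps drug-induced liver injury prediction system; call rule not given here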; for HepSE liver disease: call rule not given here;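 for HepSE liver function tests abnormal: hepatic side effect score taken from the DILIps (drug-induced liver injury prediction system) training data, here covering abnormal liver function test findings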
# Hepatotoxicity [5] = tested on: Hepatotoxicity; remark: listed apart in the source; for HepSE liver disease: call rule not given here
# Hepatotoxicity [6] = tested on: Hepatotoxicity; remark: listed apart in the source; for HepSE liver disease: call rule not given here
# Hepatotoxicity [7] = tested on: Hepatotoxicity; remark: listed apart in the source
# Hepatotoxicity [8] = tested on: Hepatotoxicity; remark: listed apart in the source
# Hepatotoxicity [9] = tested on: Hepatotoxicity; remark: listed apart in the source
# Hepatotoxicity [10] = tested on: Hepatotoxicity; remark: listed apart in the source
# Hepatotoxicity [11] = tested on: Hepatotoxicity; remark: listed apart in the source
# Hepatotoxicity [12] = tested on: Hepatotoxicity; remark: listed apart in the source
# Hepatotoxicity [13] = tested on: Hepatotoxicity; remark: listed apart in the source
# Hepatotoxicity [14] = tested on: Hepatotoxicity; remark: listed apart in the source
Compound,HepSE_cholelithiasis (Hepatotoxicity [1]),HepSE_hepatomegaly (Hepatotoxicity [2]),HepSE_liver disease (Hepatotoxicity [3]),HepSE_bilirubinemia (Hepatotoxicity [4]),HepSE_liver fatty (Hepatotoxicity [5]),HepSE_hepatitis (Hepatotoxicity [6]),HepSE_hepatic necrosis (Hepatotoxicity [7]),HepSE_liver function tests abnormal (Hepatotoxicity [8]),HepSE_cholecystitis (Hepatotoxicity [9]),HepSE_elevated liver function tests (Hepatotoxicity [10]),HepSE_Combined Scores (Hepatotoxicity [11]),HepSE_hepatic failure (Hepatotoxicity [12]),HepSE_cirrhosis (Hepatotoxicity [13]),HepSE_jaundice (Hepatotoxicity [14]),other results
CN(C)CCCN1c2ccccc2CCc2ccc(Cl)cc21 [CLOMIPRAMINE],0,0,0,0,0,1,0,0,0,0,1,0,0,0,–
COc1c(N2C[C@@H]3CCCN[C@@H]3C2)c(F)cc2c(=O)c(C(=O)O)cn(C3CC3)c12 [MOXIFLOXACIN],0,0,0,1,0,1,0,1,0,0,5,1,0,1,–
NS(=O)(=O)c1cc2c(cc1Cl)NCNS2(=O)=O [HYDROCHLOROTHIAZIDE],0,0,0,0,0,0,0,0,0,0,1,0,0,1,–
CCN(CC)CC#CCOC(=O)C(O)(c1ccccc1)C1CCCCC1 (configuration not stated) [OXYBUTYNIN],0,0,0,0,0,0,0,1,0,0,1,0,0,0,–
COc1ccccc1OCCNCC(O)COc1cccc2[nH]c3ccccc3c12 (configuration not stated) [CARVEDILOL],0,0,0,1,0,0,0,0,0,0,1,0,0,0,–
CC1(C)O[C@@H]2C[C@H]3[C@@H]4CCC5=CC(=O)CC[C@]5(C)[C@@]4(F)[C@@H](O)C[C@]3(C)[C@]2(C(=O)CCl)O1 [HALCINONIDE],0,0,0,0,0,0,0,0,0,0,0,0,0,0,–
C[C@H]1O[C@@H](O[C@H]2[C@@H](O)C[C@H](O[C@H]3[C@@H](O)C[C@H](O[C@H]4CC[C@@]5(C)[C@H](CC[C@@H]6[C@@H]5C[C@@H](O)[C@]5(C)[C@@H](C7=CC(=O)OC7)CC[C@]65O)C4)O[C@@H]3C)O[C@@H]2C)C[C@H](O)[C@@H]1O [DIGOXIN],0,0,0,0,0,0,0,0,0,0,0,0,0,0,–
OC[C@H]1O[C@@H](O)[C@@H](F)[C@@H](O)[C@@H]1O,0,0,0,0,0,0,0,0,0,0,0,0,0,0,–
CISPLATIN,0,0,0,0,0,0,0,0,0,0,0,0,0,0,–
NC(=O)c1ncn([C@@H]2O[C@H](CO)[C@@H](O)[C@H]2O)n1 [RIBAVIRIN],0,1,0,1,1,0,0,0,0,0,4,1,0,0,–
Cl[C@H]1[C@H](Cl)[C@@H](Cl)[C@@H](Cl)[C@H](Cl)[C@H]1Cl [LINDANE],–,–,–,–,–,–,–,–,–,–,–,–,–,–,HepSE_cholelithiasis (Hepatotoxicity [1]; Liver): 0; HepSE_hepatomegaly (Hepatotoxicity [2]; Liver): 0; HepSE_liver disease (Hepatotoxicity [3]; Liver): 0; HepSE_bilirubinemia (Hepatotoxicity [4]; Liver): 0; HepSE_liver fatty (Hepatotoxicity [5]; Liver): 0; HepSE_hepatitis (Hepatotoxicity [6]; Liver): 0; HepSE_hepatic necrosis (Hepatotoxicity [7]; Liver): 0; HepSE_liver function tests abnormal (Hepatotoxicity [8]; Liver): 0; HepSE_cholecystitis (Hepatotoxicity [9]; Liver): 0; HepSE_elevated liver function tests (Hepatotoxicity [10]; Liver): 0; HepSE_Combined Scores (Hepatotoxicity [11]; Liver): 0; HepSE_hepatic failure (Hepatotoxicity [12]; Liver): 0; HepSE_cirrhosis (Hepatotoxicity [13]; Liver): 0; HepSE_jaundice (Hepatotoxicity [14]; Liver): 0
Nc1nc2ncc(CNc3ccc(C(=O)N[C@@H](CCC(=O)O)C(=O)O)cc3)nc2c(=O)[nH]1 [FOLIC ACID],0,0,0,0,0,0,0,0,0,0,0,0,0,0,–
CNS(=O)(=O)Cc1ccc2[nH]cc(CCN(C)C)c2c1,0,0,0,0,0,0,0,1,0,1,2,0,0,0,–

# From ChEMBL document CHEMBL1909294, “Translating clinical findings into knowledge in drug safety evaluation--drug induced liver injury prediction system (DILIps)” (PLoS Comput Biol, 2011)
